The text below walks through data of patent US6492367B1, “Sulfamato hydroxamic acid metalloprotease inhibitor” (G. D. Searle & Company, priority 1999, dated 2002).

One data set has as its target T1, MMP-2 (Homo sapiens, UniProt P08253).
T1 sequence (P08253 110-660): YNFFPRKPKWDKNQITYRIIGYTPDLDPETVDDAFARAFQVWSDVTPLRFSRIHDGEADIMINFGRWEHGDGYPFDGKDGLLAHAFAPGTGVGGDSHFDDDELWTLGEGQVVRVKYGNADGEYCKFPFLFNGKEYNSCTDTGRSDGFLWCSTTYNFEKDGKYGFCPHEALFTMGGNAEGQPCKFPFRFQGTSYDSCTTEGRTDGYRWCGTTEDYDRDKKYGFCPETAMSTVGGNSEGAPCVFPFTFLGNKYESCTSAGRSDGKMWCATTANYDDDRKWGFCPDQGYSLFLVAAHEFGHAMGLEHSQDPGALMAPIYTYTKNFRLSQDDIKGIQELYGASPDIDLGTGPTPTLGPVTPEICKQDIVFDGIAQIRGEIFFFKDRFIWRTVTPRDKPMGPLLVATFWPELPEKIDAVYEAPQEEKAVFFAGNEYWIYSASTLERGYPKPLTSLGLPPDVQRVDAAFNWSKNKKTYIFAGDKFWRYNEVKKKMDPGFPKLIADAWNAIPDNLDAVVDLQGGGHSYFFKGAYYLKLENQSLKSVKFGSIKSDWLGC
Description: In vitro metalloprotease inhibition, fluorogenic MCA peptide substrate. The following applies: Inhibition Table; room temperature, pH 7.5, 4 μM substrate.

Another data set deals with T2, recombinant human MMP-1 (Homo sapiens, UniProt P03956).
T2 sequence (P03956 100-469): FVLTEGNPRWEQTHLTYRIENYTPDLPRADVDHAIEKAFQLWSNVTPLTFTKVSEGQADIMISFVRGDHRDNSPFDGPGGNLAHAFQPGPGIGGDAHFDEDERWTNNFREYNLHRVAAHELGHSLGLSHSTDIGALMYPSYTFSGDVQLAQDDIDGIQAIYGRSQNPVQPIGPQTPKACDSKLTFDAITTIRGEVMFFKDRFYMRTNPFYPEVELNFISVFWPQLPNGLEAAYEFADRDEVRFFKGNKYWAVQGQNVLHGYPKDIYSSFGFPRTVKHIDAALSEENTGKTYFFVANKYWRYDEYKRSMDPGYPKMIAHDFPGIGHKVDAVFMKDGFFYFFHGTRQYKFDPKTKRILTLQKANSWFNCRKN
The description is as above. The note with it: Inhibition Table; room temperature, pH 7.5, 4 μM substrate.

In another data set the target is recombinant human MMP-13 (Homo sapiens, UniProt P45452). The data set is described as above. The format is biochemical. The following applies: Inhibition Table; room temperature, pH 7.5, 4 μM substrate. The protocol:
The compounds prepared in the manner described in the Examples above were assayed for activity by an in vitro assay. Following the procedures of Knight et al., FEDS Lett. 296(3):263 (1992).
More specifically, recombinant human MMP-13 and MMP-1 enzymes were prepared in laboratories of the assignee following usual laboratory procedures. MMP-13 from a full length cDNA clone was expressed as a proenzyme using a baculovirus as discussed in V.A. Luckow, insect Cell Expression Technology, pages 183-218, in Protein Engineering: Principles and Practice, J. L. Cleland et al eds., Wiley-Liss, Inc., (1996). […]
In the absence of inhibitor activity, a fluorogenic peptide was cleaved at the gly-leu peptide bond, separating the highly fluorogenic peptide from a 2,4-dinitrophenyl quencher, resulting in an increase of fluorescence intensity (excitation at 328 nm/emission at 415 nm). Inhibition was measured as a reduction in fluorescent intensity as a function of inhibitor concentration, using a Perkin Elmer L550 plate reader. The IC50 values were calculated from those values. […]

The subject of data set [1] is advanced, rapidly progressive, treatment-refractory solid tumor cancers (colorectal, pancreatic, ovarian, prostate). The following applies: cited from earlier work.

Description for MMP-2: The enzyme substrate is a methoxycoumarin-containing polypeptide having the following sequence:
MCA-ProLeuGlyLeuDpaAlaArgNH2, wherein MCA is methoxycoumarin and Dpa is 3-(2,4-dinitrophenyl)-L-2,3-diaminopropionyl alanine.
Assays were carried out at room temperature, and dimethyl sulfoxide (DMSO) at a final concentration of 1 percent was used to dissolve inhibitor compound.
The assayed inhibitor compound in DMSO/buffer solution was compared to an equal amount of DMSO/buffer with no inhibitor as control using Microfluor T White Plates (Dynatech). The inhibitor or control solution was maintained in the plate for minutes and the substrate was added to provide a final concentration of 4 μM.

As to “4-[[4-[[(3R,5R)-rel-3,5-Dimethyl-1-piperidinyl]carbonyl]-1-piperidinyl]sulfonyl]tetrahydro-N-hydroxy-2H-pyran-4-carboxamide and 4-[[4-[[(3R,5S)-rel-3,5-dimethyl-1-piperidinyl]carbonyl]-1-piperidinyl]sulfonyl]tetrahydro-N-hydroxy-2H-pyran-4-carboxamide [Example 49]”, the “ED50 MMP-2” value at MMP-2 was <10,000 nM. Besides, the “ED50 MMP-1” value on recombinant human MMP-1 is listed as <10,000 nM. Moreover, at recombinant human MMP-13, the “ED50 MMP-13” value is given as <10,000 nM.
Turning to `CNC(=O)[C@@H](NC(=O)[C@H](CC(C)C)[C@H](O)C(=O)NO)C(C)(C)C` [marimastat, Marimastat], the “most common drug-related toxicity” value in data set [1] (Phase I/II clinical trials) was “musculoskeletal pain and stiffness”. The “cancer-specific antigens used as surrogate markers for biological activity” value in data set [1] (Phase I/II studies, patients with advanced solid tumor cancers) was “dose-related reduction in the rise of cancer-specific antigens”.
